From ChEMBL document CHEMBL3045487, “Bioactivity guided isolation of antiinflammatory, analgesic, and antipyretic constituents from the leaves of Pedilanthus tithymaloides (L.)” (Med Chem Res, 2013)

Key:
Rattus norvegicus [1] = experiment: Antipyretic activity in Wistar albino Rattus norvegicus (rat) assessed as brewer's yeast-induced rectal tempeRattus norvegicus (rat)ure at 10 mg/kg, po measured at 19 hr (reference value: 39.3 +/- 0.11 degC); type: functional
Mus musculus [2] = experiment: Toxicity in Swiss albino Mus musculus (mouse) assessed as weight loss up to 100 mg/kg, po measured up to 24 hr relative to control; type: organism-based; design: dose 100 mg/kg, route oral; conditions: in vivo
Mus musculus [3] = experiment: Toxicity in Swiss albino Mus musculus (mouse) assessed as effect on mobility up to 100 mg/kg, po measured up to 24 hr relative to control; type: organism-based; design: dose 100 mg/kg, route oral; conditions: in vivo
Mus musculus [4] = experiment: Toxicity in Swiss albino Mus musculus (mouse) assessed as ataxia up to 100 mg/kg, po measured up to 24 hr relative to control; type: organism-based; design: dose 100 mg/kg, route oral; conditions: in vivo
Rattus norvegicus [5] = experiment: Antipyretic activity in Wistar albino Rattus norvegicus (rat) assessed as brewer's yeast-induced rectal temperature at 10 mg/kg, po measured at 22 hr (reference value: 39.1+/- 0.18 degC); type: functional
Mus musculus [6] = experiment: Anti-inflammatory activity in Swiss albino Mus musculus (mouse) assessed as inhibition of cotton pellet-induced granuloma formation at 10 mg/kg, po administered QD for 5 days measured at 1 hr post-last dose relative to control; type: functional
Mus musculus [7] = experiment: Toxicity in Swiss albino Mus musculus (mouse) assessed as abdominal constriction up to 100 mg/kg, po measured up to 24 hr relative to control; type: organism-based, Abdomen; design: dose 100 mg/kg, route oral; conditions: in vivo
Mus musculus [8] = experiment: Toxicity in Swiss albino Mus musculus (mouse) assessed as diarrhea up to 100 mg/kg, po measured up to 24 hr relative to control; type: organism-based; design: dose 100 mg/kg, route oral; conditions: in vivo
Mus musculus [9] = experiment: Toxicity in Swiss albino Mus musculus (mouse) assessed as mortality up to 100 mg/kg, po measured up to 72 hr; type: organism-based; design: dose 100 mg/kg, route oral; conditions: in vivo
Mus musculus [10] = experiment: Toxicity in Swiss albino Mus musculus (mouse) assessed as convulsions up to 100 mg/kg, po measured up to 24 hr relative to control; type: organism-based; design: dose 100 mg/kg, route oral; conditions: in vivo
Rattus norvegicus [11] = experiment: Antipyretic activity in Wistar albino Rattus norvegicus (rat) assessed as brewer's yeast-induced rectal tempeRattus norvegicus (rat)ure at 10 mg/kg, po measured at 21 hr (reference value: 39.1+/- 0.18 degC); type: functional
Mus musculus [12] = experiment: Toxicity in Swiss albino Mus musculus (mouse) assessed as lethargy up to 100 mg/kg, po measured up to 24 hr relative to control; type: organism-based; design: dose 100 mg/kg, route oral; conditions: in vivo
Rattus norvegicus [13] = experiment: Antipyretic activity in Wistar albino Rattus norvegicus (rat) assessed as brewer's yeast-induced rectal tempeRattus norvegicus (rat)ure at 10 mg/kg, po measured at 23 hr (reference value: 39.1+/- 0.18 degC); type: functional
Rattus norvegicus [14] = experiment: Antipyretic activity in Wistar albino Rattus norvegicus (rat) assessed as brewer's yeast-induced rectal tempeRattus norvegicus (rat)ure at 10 mg/kg, po measured at 20 hr (reference value: 39.1+/- 0.18 degC); type: functional
Mus musculus [15] = experiment: Toxicity in Swiss albino Mus musculus (mouse) assessed as tremors up to 100 mg/kg, po measured up to 24 hr relative to control; type: organism-based; design: dose 100 mg/kg, route oral; conditions: in vivo
Mus musculus [16] = experiment: Toxicity in Swiss albino Mus musculus (mouse) assessed as presence of secretions up to 100 mg/kg, po measured up to 24 hr relative to control; type: organism-based; design: dose 100 mg/kg, route oral; conditions: in vivo
Mus musculus [17] = experiment: Antinociceptive activity in Swiss albino Mus musculus (mouse) assessed as inhibition of acetic acid-induced writhing at 10 mg/kg, po administered 1 hr prior to acetic acid-challenge measured up to 20 min relative to control; type: functional
Mus musculus [18] = experiment: Antinociceptive activity Swiss albino Mus musculus (mouse) assessed as inhibition of formalin-induced paw licking at 10 mg/kg, po administered 30 min prior to formalin-challenge measured up to 5 min relative to control; type: functional
Mus musculus [19] = experiment: Antinociceptive activity Swiss albino Mus musculus (mouse) assessed as inhibition of formalin-induced paw licking at 10 mg/kg, po administered 30 min prior to formalin-challenge measured from 15 to 30 min relative to control; type: functional
Mus musculus [20] = experiment: Antinociceptive activity Swiss albino Mus musculus (mouse) assessed as inhibition of formalin-induced paw licking at 10 mg/kg, po administered 60 min prior to formalin-challenge measured up to 5 min relative to control; type: functional
Mus musculus [21] = experiment: Anti-inflammatory activity in Swiss albino Mus musculus (mouse) assessed as inhibition of carrageenan-induced paw edema at 10 mg/kg, ip administered 30 min prior to carrageenan-challenge measured after 3 to 4 hr relative to control; type: functional; conditions: route intraperitoneal
Mus musculus [22] = experiment: Antinociceptive activity Swiss albino Mus musculus (mouse) assessed as inhibition of formalin-induced paw licking at 10 mg/kg, po administered 60 min prior to formalin-challenge measured from 15 to 30 min relative to control; type: functional
Mus musculus [23] = experiment: Anti-inflammatory activity in Swiss albino Mus musculus (mouse) assessed as inhibition of carrageenan-induced paw edema at 10 mg/kg, ip administered 30 min prior to carrageenan-challenge measured after 5 hr relative to control; type: functional; conditions: route intraperitoneal

CC[C@H](CC[C@@H](C)[C@H]1CC[C@H]2[C@@H]3CC=C4C[C@@H](O)CC[C@]4(C)[C@H]3CC[C@]12C)C(C)C [BETA-SITOSTEROL]
T (Rattus norvegicus [1]): 39.6 °C | Activity (Mus musculus [2]): Non-toxic | Activity (Mus musculus [3]): Non-toxic | Activity (Mus musculus [4]): Non-toxic | T (Rattus norvegicus [5]): 38 °C | inhibition in vivo at 10 mg/kg (Mus musculus [6]): 30.4% | Activity (Mus musculus [7]): Non-toxic | Activity (Mus musculus [8]): Non-toxic | Activity (Mus musculus [9]): Non-toxic | Activity (Mus musculus [10]): Non-toxic | T (Rattus norvegicus [11]): 38.1 °C | Activity (Mus musculus [12]): Non-toxic | T (Rattus norvegicus [13]): 37.9 °C | T (Rattus norvegicus [14]): 38.1 °C | Activity (Mus musculus [15]): Non-toxic | Activity (Mus musculus [16]): Non-toxic

O=C(O)Cc1ccccc1Nc1c(Cl)cccc1Cl [DICLOFENAC SODIUM]
inhibition in vivo at 10 mg/kg (Mus musculus [17]): 90.9% | inhibition in vivo at 10 mg/kg (Mus musculus [18]): 20.1% | inhibition in vivo at 10 mg/kg (Mus musculus [19]): 97.6%

C[C@H]1[C@H](O)CC[C@@H]2[C@]1(C)CC[C@H]1[C@@]2(C)CC[C@@]2(C)[C@H]3CC(C)(C)CC[C@]3(C)CC[C@]12C [FRIEDELANOL]
Activity (Mus musculus [2]): Non-toxic | inhibition in vivo at 10 mg/kg (Mus musculus [20]): 35.7% | Activity (Mus musculus [3]): Non-toxic | inhibition in vivo at 10 mg/kg (Mus musculus [17]): 45.8% | Activity (Mus musculus [4]): Non-toxic | inhibition in vivo at 10 mg/kg (Mus musculus [6]): 29.2% | inhibition in vivo at 10 mg/kg (Mus musculus [21]): 36.1% | Activity (Mus musculus [7]): Non-toxic | Activity (Mus musculus [8]): Non-toxic | Activity (Mus musculus [9]): Non-toxic | Activity (Mus musculus [10]): Non-toxic | Activity (Mus musculus [12]): Non-toxic | inhibition in vivo at 10 mg/kg (Mus musculus [22]): 42.9% | Activity (Mus musculus [15]): Non-toxic | Activity (Mus musculus [16]): Non-toxic

CCCCCCCCCCCCC(O)COS(=O)(=O)[O-].[Na+] (stereo unspecified)
Activity (Mus musculus [2]): Non-toxic | Activity (Mus musculus [3]): Non-toxic | Activity (Mus musculus [4]): Non-toxic | inhibition in vivo at 10 mg/kg (Mus musculus [6]): 12.9% | inhibition in vivo at 10 mg/kg (Mus musculus [21]): 33.3% | Activity (Mus musculus [7]): Non-toxic | Activity (Mus musculus [8]): Non-toxic | Activity (Mus musculus [9]): Non-toxic | Activity (Mus musculus [10]): Non-toxic | Activity (Mus musculus [12]): Non-toxic | Activity (Mus musculus [15]): Non-toxic | Activity (Mus musculus [16]): Non-toxic

O=c1cc(-c2ccc(O)c(O)c2)oc2cc(O)cc(O)c12 [LUTEOLIN]
Activity (Mus musculus [2]): Non-toxic | inhibition in vivo at 10 mg/kg (Mus musculus [20]): 40.3% | Activity (Mus musculus [3]): Non-toxic | inhibition in vivo at 10 mg/kg (Mus musculus [17]): 55.4% | Activity (Mus musculus [4]): Non-toxic | inhibition in vivo at 10 mg/kg (Mus musculus [6]): 37% | Activity (Mus musculus [7]): Non-toxic | Activity (Mus musculus [8]): Non-toxic | Activity (Mus musculus [9]): Non-toxic | Activity (Mus musculus [10]): Non-toxic | inhibition in vivo at 10 mg/kg (Mus musculus [23]): 50% | Activity (Mus musculus [12]): Non-toxic | inhibition in vivo at 10 mg/kg (Mus musculus [22]): 48.6% | Activity (Mus musculus [15]): Non-toxic | Activity (Mus musculus [16]): Non-toxic
